These results are taken from PMC8232621, “Antimicrobial Activity of a Library of Thioxanthones and Their Potential as Efflux Pump Inhibitors” (Pharmaceuticals, 2021).

The subject of data set [1] is P-gp. Set-up: method as in PMID 22044878. As to conditions: cited from earlier work.
Data set [2] concerns E. faecalis B3/101. The data set can be described thus: Synergy with vancomycin (antibiotic MIC in presence of compound). The format is cell-based, Enterococcus faecalis. From the text:
The referred library of thioxanthones was initially tested for their antimicrobial activity against six bacterial strains: the Gram-negative Escherichia coli ATCC 25922, Pseudomonas aeruginosa ATCC 27853 and Salmonella enterica serovar Typhimurium SL1344 (SE03), with the acrA gene deleted, and the Gram-positive Staphylococcus aureus ATCC 29213, Enterococcus faecalis ATCC 29212 and the methicillin and ofloxacin-resistant clinical isolate S. aureus 272123. For the synergy assay, two clinically relevant isolates were used: the extended-spectrum β-lactamase (ESBL)-producing E. coli SA/2 [23] and the vancomycin-resistant E. faecalis (VRE) B3/101 [23]. The antibiotics used were cefotaxime (CTX) and vancomycin (VAN), respectively.
The combined effect of the compounds and clinically relevant antimicrobial drugs was evaluated by determining the antibiotic’s MIC in the presence of each compound. […] The antibiotic tested was serially diluted, whereas the concentration of each compound was kept fixed. In the case of compound 12, the concentration used was 8 µg/mL. For all other compounds, the concentration used was 64 µg/mL. Antibiotic MICs were determined as described above.

Data set [3] deals with Caco-2 cells. As to the kind of experiment: Cytotoxicity in Caco-2 cells, sulforhodamine B (SRB) binding assay. The format is cell-based, human. Particulars: 24 h after exposure. The protocol: Caco-2 cells were routinely cultured in 75 cm^2 flasks using DMEM with 4.5 g/L glucose supplemented with 10% FBS, 1% NEAA and 1% antibiotic. Cells were maintained at 37 °C, in a 5% CO2 and 95% air atmosphere, and the cell culture medium was changed every 2−3 days. Cultures were passaged weekly by trypsinization (0.25% trypsin/1 mM EDTA). In all experiments, the cells were seeded at a density of 60,000 cells/cm^2 and used three days after seeding, when confluence was reached. The cells used in all experiments were taken between the 55th and 64th passages.
The compounds’ (0−20 μM) cytotoxicity was evaluated by the neutral red (NR) uptake and Sulforhodamine B (SRB) binding assays, 24 h after exposure. Caco-2 cells were seeded onto 96-well plates at a density of 60,000 cells/cm^2 and exposed, after reaching confluence (three days after seeding), to the compounds (0–20 μM), in a fresh cell culture medium. Triton™ X-100 (0.1%) was used as a positive control.
The SRB binding assay is based on the pH-dependent binding of SRB to basic amino acids of cellular proteins under mild acidic conditions. […] The bounded SRB was then extracted with a Tris base solution (10 mM, pH 10.5) and the absorbance was measured, at 540 nm, in a multi-well plate reader (PowerWaveX BioTek Instruments, VT, USA). […]

Take `CCCOc1ccc(NCCN(CC)CC)c2c(=O)c3ccccc3sc12` [Compound 2]: in data set [1], the “type of P-gp inhibition” value is “competitive inhibitor”. As for `CCCOc1ccc(N2CCNC(=O)C2)c2c(=O)c3ccccc3sc12` [Compound 9, 4-(9-Oxo-4-propoxy-9H-thioxanthen-1-yl)piperazin-2-one], the “decrease of the MIC of VAN” value in data set [2] is given as 16 fold. With `CCCOc1ccc2nc(NCc3ccccc3Cl)nc3c2c1Sc1ccccc1-3` [Compound 17], the “SRB binding vs control cells” value in data set [3] (10 µM) is listed as “no significant differences”. Also, in data set [3] (20 µM), the “SRB binding (relative to control cells)” value turned out to be 105.8%.
